Measured values taken from patent US20170112861A1, “DRUG DELIVERY ENHANCER COMPRISING SUBSTANCE FOR ACTIVATING LYSOPHOSPHOLIPID RECEPTORS” (Osaka University, priority 2014, published 2017).

Columns and labels:
B16-BL6 cells = test: Lung metastasis from primary lesion in B16-BL6 cell tumor-bearing mice; assay type: in vivo; conditions: B16-BL6 tumors, LPA 3 mg/kg i.p. once daily until day 21, counted on day 42, vs control, p<0.01
Experimental: B16-BL6 cells (1×10^6 cells in 100 μL PBS per animal) were subcutaneously injected into C57BL/6 NCrSlc mice aged 8 weeks (females, SLC, Inc.). On day 7 post-inoculation of B16-BL6 cells, mice with a tumor volume of 30 to 50 mm^3 were selected. The mice were divided into two groups: control group and LPA group (n=3). LPA (3 mg/kg in 100 μL PBS) or PBS (100 μL) was administered intraperitoneally. LPA or PBS was administered once daily until day 21 post-inoculation. On day 42 post-inoculation of B16-BL6 cells, mice were euthanized and the lung was harvested. The number of metastatic colonies in the harvested lung was counted under a stereoscopic microscope (Leica). For the statistical analysis, Student's t-test was performed.

[1] = tested on: VE-cadherin in tumor blood vessels of LLC cell tumors; test: VE-cadherin expression in vascular endothelial cells of tumors after LPA administration; assay type: in vivo, mice; conditions: LPA 3 mg/kg i.p., 24 hours after administration
Experimental: LLC cells were subcutaneously inoculated into C57BL/6 NCrSlc mice aged 8 weeks (females, SLC, Inc.) in the same manner as in Example 1. An LPA administration solution was prepared in the same manner as in Example 1. Mice on day 9 post-inoculation of LLC cells (individuals with a tumor volume of 60 to 80 mm^3) were subjected to the experiment. The mice were divided into two groups: control group and LPA group (n=3). LPA was intraperitoneally administered to the mice of the LPA group at a dose of 3 mg/kg in 100 μL PBS. The tumors of the control group were harvested just after grouping, and the tumors of the LPA group were harvested at 24 hours after LPA administration. The tumor tissue specimens were immunostained in the same manner as in Example 1 except that the primary antibody and the secondary antibody were changed. The primary antibody was Purified […] Anti-mouse VE-cadherin (BD pharmingen), and the anti-mouse VE-cadherin antibody was diluted to 200-fold in blocking solution. The secondary antibody was Alexa Fluor 488 Goat Anti-rat IgG (Life technologies), and the antibody was diluted to 400-fold in blocking solution. The prepared specimens were observed and photographed under a confocal laser microscope (Leica). Z-stack images were acquired using a confocal laser microscope and analyzed for the expression level (fluorescence intensity) of VE-cadherin.

[2] = tested on: tumor blood vessels of LLC cell tumors; test: Structural changes in tumor blood vessels after LPA administration (anti-CD31 immunostaining, AngioTool); assay type: in vivo; conditions: LLC tumor-bearing mice, LPA 3 mg/kg i.p.
Experimental: Lewis lung cancer cell line (hereinafter called LLC cells) was used as the mouse cancer cell line. LLC cells (1×10^6 cells in 100 μL PBS per animal) were subcutaneously injected into C57BL/6 NCrSlc mice aged 8 weeks (females, SLC, Inc.).
The LPA used was 18:1 LPA (Avanti Polar Lipids, Inc.). A 10 mM LPA stock solution was prepared using 50% ethanol and the solution was stored at −30° C. Before use, the LPA stock solution was thawed and homogenized with an ultrasonic cleaner (SND Co., Ltd.) for 1 minute. The solution was diluted in PBS before administration so that the concentration of LPA was 3 mg/kg in 100 μL PBS. The prepared solution was used for LPA administration.
Day 9 post-inoculation of LLC cells, mice that developed a tumor with a volume of 60 to 80 mm^3 (volume=length×width×height×0.5) were selected and used for the test. Four groups each of three mice were provided: control group, LPA/6 hr group, LPA/12 hr group and LPA/24 hr group. LPA was intraperitoneally administered to the mice of the LPA groups at a dose of 3 mg/kg in 100 μL PBS. The tumors were harvested before LPA administration (control group), and at 6, 12 and 24 hours after LPA administration. The tumors were immersed in 4% paraformaldehyde (PFA)/PBS and shaken at 4° C. overnight for fixation. The tumors were washed with cold PBS (4° C.). Washing was continued for 6 hours, and PBS was renewed every 30 minutes. The tumors were immersed in 15% sucrose/PBS and shaken at 4° C. for 3 hours. The tumors were then immersed in 30% sucrose/PBS and shaken at 4° C. for 3 hours. The tumors were embedded in O.C.T compound (Tissue-Tek) and frozen at −80° C. for 3 days or longer.
The tumors embedded in O.C.T. compound were sectioned at 40 μm with a cryostat (Leica). The sections were placed on glass slides, and air-dried for 2 hours with a drier. The sections were encircled with a liquid blocker. […] The vessel length was measured in the photographs using the vascular structure analysis software AngioTool.

lysophosphatidic acid [LPA]
lung metastasis (number of lung metastatic colonies) (B16-BL6 cells): significantly inhibited
expression level (fluorescence intensity) of VE-cadherin from Z-stack images [1]: a strong fluorescence intensity on the cell membrane
localization of VE-cadherin in tumor vascular endothelial cells [1]: VE-cadherin localized on the cell-cell junctions
structure of tumor blood vessels (vascular network) ([2]; 12 and 24 hours after administration): the formation of a fine vascular network similar to that in normal tissues was observed
structure of tumor blood vessels (vascular network) ([2]; 6 hours after administration): the connection of the blood vessels was observed
average length of blood vessels (AngioTool) ([2]; vs before administration): the length of blood vessels was increased
